Assay [1] in a line: Antiproliferative activity against human SMMC7721 cells assessed as cell growth inhibition after 48 hrs by MTT assay. To be noted: SMMC-7721, 48 h. In general terms: Formazan colour is commonly taken as a measure of viable cells.
Another assay deals with A549. Put plainly: Antiproliferative activity against human A549 cells assessed as cell growth inhibition after 48 hrs by MTT assay. To be noted: A549, 48 h.
Assay [2] deals with Vascular endothelial growth factor receptor 2 (Homo sapiens, UniProt P35968). Put plainly: Inhibition of VEGFR-2 (unknown origin) after 1 hr by ADP-Glo assay. A general note: ADP-Glo first removes unused ATP, then detects ADP through luciferase.
Chain of Vascular endothelial growth factor receptor 2 (P35968 whole entry): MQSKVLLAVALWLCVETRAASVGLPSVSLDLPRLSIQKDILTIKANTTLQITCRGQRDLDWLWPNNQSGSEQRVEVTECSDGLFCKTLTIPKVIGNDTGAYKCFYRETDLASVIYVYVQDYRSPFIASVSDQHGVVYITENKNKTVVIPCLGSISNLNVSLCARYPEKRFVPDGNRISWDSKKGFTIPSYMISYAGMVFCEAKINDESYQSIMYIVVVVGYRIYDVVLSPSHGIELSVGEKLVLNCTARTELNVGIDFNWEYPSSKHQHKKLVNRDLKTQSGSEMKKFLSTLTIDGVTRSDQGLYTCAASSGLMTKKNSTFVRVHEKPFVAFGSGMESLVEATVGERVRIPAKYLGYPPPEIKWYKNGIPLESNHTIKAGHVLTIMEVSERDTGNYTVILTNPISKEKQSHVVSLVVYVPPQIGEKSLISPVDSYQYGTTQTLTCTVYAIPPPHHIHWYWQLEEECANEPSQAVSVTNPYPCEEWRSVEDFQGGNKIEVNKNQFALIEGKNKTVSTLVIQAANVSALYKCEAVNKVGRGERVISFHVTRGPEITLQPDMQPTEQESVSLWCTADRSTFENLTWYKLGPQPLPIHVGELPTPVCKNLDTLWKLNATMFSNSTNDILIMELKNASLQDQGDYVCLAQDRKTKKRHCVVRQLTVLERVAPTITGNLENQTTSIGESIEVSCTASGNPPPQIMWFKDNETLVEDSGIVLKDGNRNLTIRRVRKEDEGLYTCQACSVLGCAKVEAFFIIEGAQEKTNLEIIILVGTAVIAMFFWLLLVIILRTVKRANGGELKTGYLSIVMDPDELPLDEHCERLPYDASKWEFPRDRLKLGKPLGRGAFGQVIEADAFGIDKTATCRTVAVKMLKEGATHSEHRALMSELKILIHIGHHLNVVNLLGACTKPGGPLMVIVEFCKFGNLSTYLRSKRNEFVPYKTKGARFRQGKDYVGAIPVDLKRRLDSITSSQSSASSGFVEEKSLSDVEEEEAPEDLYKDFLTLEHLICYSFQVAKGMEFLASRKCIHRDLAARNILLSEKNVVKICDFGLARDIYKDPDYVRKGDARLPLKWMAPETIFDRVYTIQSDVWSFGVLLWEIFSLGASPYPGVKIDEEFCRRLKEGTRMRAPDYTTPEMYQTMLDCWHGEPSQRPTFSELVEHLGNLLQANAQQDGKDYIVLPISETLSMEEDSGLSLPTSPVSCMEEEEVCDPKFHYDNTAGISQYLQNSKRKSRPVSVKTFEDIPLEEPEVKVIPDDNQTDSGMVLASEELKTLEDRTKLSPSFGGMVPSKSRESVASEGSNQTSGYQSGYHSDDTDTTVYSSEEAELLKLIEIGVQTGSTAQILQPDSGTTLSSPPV

Usually IC50 stands for the concentration that inhibits the measured activity by half. As for `COc1ccc(C(=O)OCCN(C)C)cc1NC(=O)Nc1cc(-c2cccnc2)cc(C(F)(F)F)c1`, the concentration for half-maximal inhibition (IC50) in assay [1] was determined as 860 nM; with A549, 2490 nM.
On to `COc1ccc(C(=O)OCCN(C)C)cc1NC(=O)Nc1cc(-c2cncnc2)cc(C(F)(F)F)c1`, for which the IC50 was 1390 nM in assay [1], 1660 nM in the assay on A549 and > 500000 nM in assay [2].
Regarding `COc1ccc(C(=O)OCCN(C)C)cc1NC(=O)Nc1cc(-c2cccnc2)ccc1OC(F)(F)F`, the IC50 in assay [1] is 1380 nM; in the assay with A549 it was 1010 nM.
The like results for `COc1ccc(C(=O)OCCN(C)C)cc1NC(=O)Nc1cc(-c2ccc3[nH]ccc3c2)ccc1OC(F)(F)F` were, in that order, 1760 nM and 950 nM.
The like results for `COc1ccc(-c2ccc(OC(F)(F)F)c(NC(=O)Nc3cc(C(=O)OCCN(C)C)ccc3OC)c2)cn1` were, in that order, 2010 nM and 910 nM.
The like results for `COc1ccc(C(=O)OCCN(C)C)cc1NC(=O)Nc1cc(-c2cncnc2)ccc1OC(F)(F)F` were, in that order, 6150 nM and 14700 nM.
`CCN(CC)CCOC(=O)c1ccc(OC)c(NC(=O)Nc2cc(-c3ccc4[nH]ccc4c3)ccc2OC(F)(F)F)c1`: the IC50 stood at 570 nM in assay [1] and 990 nM with A549.
For `CCN(CC)CCOC(=O)c1ccc(OC)c(NC(=O)Nc2cc(-c3ccc(OC)nc3)ccc2OC(F)(F)F)c1` the same measures were 640 nM and 1730 nM.
For the molecule `CCN(CC)CCOC(=O)c1ccc(OC)c(NC(=O)Nc2cc(-c3cncnc3)ccc2OC(F)(F)F)c1`, the IC50 is 3430 nM in assay [1], > 500000 nM in the assay on A549 and > 500000 nM in assay [2].
Regarding `COc1ccc(C(=O)OCCN(C(C)C)C(C)C)cc1NC(=O)Nc1cc(-c2cccnc2)cc(C(F)(F)F)c1`, the IC50 in assay [1] was 730 nM; in the assay on A549 it was 1910 nM.
As for `COc1ccc(C(=O)OCCN(C(C)C)C(C)C)cc1NC(=O)Nc1cc(-c2ccc3[nH]ccc3c2)cc(C(F)(F)F)c1`, the IC50 in assay [1] was 410 nM; in the assay with A549, 1570 nM; in assay [2], > 500000 nM.
The like results for `COc1ccc(C(=O)OCCN(C(C)C)C(C)C)cc1NC(=O)Nc1cc(-c2ccc3[nH]ccc3c2)ccc1OC(F)(F)F` were, in that order, 360 nM, 2060 nM and > 500000 nM.
As to `COc1ccc(C(=O)OCCN(C(C)C)C(C)C)cc1NC(=O)Nc1cc(-c2cncnc2)ccc1OC(F)(F)F`, the IC50 in assay [1] was 920 nM; in the assay with A549, 3970 nM; in assay [2], > 500000 nM.
For `COc1ccc(C(=O)OCCN(C(C)C)C(C)C)cc1NC(=O)Nc1cc(-c2cn[nH]c2)ccc1OC(F)(F)F` the same measures were 1230 nM, 1520 nM and > 500000 nM.
Regarding `COc1ccc(C(=O)OCCN(C(C)C)C(C)C)cc1NC(=O)Nc1cc(-c2cnn(C)c2)ccc1OC(F)(F)F`, the IC50 (in assay [1]; with A549; in assay [2]) was > 500000 nM each time.
Take `COc1ccc(C(=O)OCCN2CCOCC2)cc1NC(=O)Nc1cc(-c2cccnc2)cc(C(F)(F)F)c1`: the IC50 is 11100 nM in assay [1], > 500000 nM in the assay with A549 and > 500000 nM in assay [2].
On to `COc1ccc(C(=O)OCCN2CCOCC2)cc1NC(=O)Nc1cc(-c2ccc3[nH]ccc3c2)cc(C(F)(F)F)c1`, for which the concentration for half-maximal inhibition (IC50) is 1770 nM in assay [1], 1240 nM in the assay on A549 and > 500000 nM in assay [2].
As to `COc1ccc(C(=O)OCCN2CCOCC2)cc1NC(=O)Nc1cc(-c2cncnc2)ccc1OC(F)(F)F`, the IC50 in assay [1] was determined as 10800 nM; with A549, 1280 nM.
For `COc1ccc(C(=O)OCCN2CCOCC2)cc1NC(=O)Nc1cc(-c2cn[nH]c2)ccc1OC(F)(F)F` the same measures were 2550 nM and > 500000 nM.
For `Nc1n[nH]c2cccc(-c3cccc(NC(=O)Nc4ccccc4F)c3)c12` the same measures were 2360 nM and 1170 nM.
The like results for `Nc1n[nH]c2cccc(-c3cccc(NC(=O)Nc4cccc(F)c4)c3)c12` were, in that order, 1240 nM and 1360 nM.
On to `Nc1n[nH]c2cccc(-c3cccc(NC(=O)Nc4ccc(F)cc4)c3)c12`, for which the IC50 (in assay [1]; with A549) was > 500000 nM each time.
For the molecule `Nc1n[nH]c2cccc(-c3cccc(NC(=O)Nc4ccccc4Cl)c3)c12`, the IC50 in assay [1] is > 500000 nM; with A549, 15800 nM.
The like results for `Nc1n[nH]c2cccc(-c3cccc(NC(=O)Nc4cccc(Cl)c4)c3)c12` were, in that order, 1830 nM and 1720 nM.
The like results for `Cc1ccc(NC(=O)Nc2cccc(-c3cccc4[nH]nc(N)c34)c2)cc1` were, in that order, 4450 nM and 1660 nM.
For `CC(C)c1cccc(NC(=O)Nc2cccc(-c3cccc4[nH]nc(N)c34)c2)c1` the same measures were 280 nM and 1420 nM.
Regarding `Nc1n[nH]c2cccc(-c3cccc(NC(=O)Nc4cccc(C(F)(F)F)c4)c3)c12`, the IC50 was 1410 nM in assay [1] and 1950 nM in the assay with A549.
On to `COc1cccc(NC(=O)Nc2cccc(-c3cccc4[nH]nc(N)c34)c2)c1`, for which the 50% inhibitory concentration (IC50) was 2860 nM in assay [1] and 2490 nM in the assay on A549.
Take `Cc1cccc(C)c1NC(=O)Nc1cccc(-c2cccc3[nH]nc(N)c23)c1`: the IC50 in assay [1] was > 500000 nM; in the assay on A549, 229000 nM; in assay [2] it was > 500 nM.
For `Nc1n[nH]c2cccc(-c3cccc(NC(=O)Nc4ccc(F)c(F)c4)c3)c12` the same measures were 5880 nM, 3040 nM and > 500 nM.
As to `Nc1n[nH]c2cccc(-c3cccc(NC(=O)Nc4ccc(Cl)cc4Cl)c3)c12`, the IC50 in assay [1] was 1900 nM; in the assay with A549, > 500000 nM.
For `Nc1n[nH]c2cccc(-c3cccc(NC(=O)Nc4cc(C(F)(F)F)cc(C(F)(F)F)c4)c3)c12` the same measures were 3540 nM and 1510 nM.
For `Cc1ccc(NC(=O)Nc2cccc(-c3cccc4[nH]nc(N)c34)c2)cc1Cl` the same measures were 510 nM and 1750 nM.
The like results for `Nc1n[nH]c2cccc(-c3cccc(NC(=O)Nc4ccc(Cl)c(C(F)(F)F)c4)c3)c12` were, in that order, 1150 nM and 3410 nM.
For `Nc1n[nH]c2cccc(-c3cccc(NC(=O)Nc4nccs4)c3)c12`, the results for the concentration for half-maximal inhibition (IC50) (in assay [1]; with A549; in assay [2]) were 550 nM, > 500000 nM and > 500 nM, respectively.
With `Nc1n[nH]c2cccc(-c3ccc(NC(=O)Nc4ccc5c(c4)OCO5)cc3)c12`, the IC50 in assay [1] is 530 nM; with A549, 5230 nM.
`Cc1ccnc(NC(=O)Nc2ccc(-c3cccc4[nH]nc(N)c34)cc2)c1`: the IC50 was 430 nM in assay [1], 1160 nM in the assay with A549 and > 500 nM in assay [2].
Take `CN(C)CCOc1ccc(NC(=O)Nc2ccc(-c3cccc4[nH]nc(N)c34)cc2)cc1F`: the IC50 in assay [1] was 600 nM; in the assay on A549, > 500000 nM.
As for `CNC(=O)c1cc(Oc2ccc(NC(=O)Nc3ccc(Cl)c(C(F)(F)F)c3)cc2)ccn1` [SORAFENIB], the IC50 in assay [1] came out at 650 nM; in the assay with A549 it was 1450 nM.

The values above are taken from ChEMBL document CHEMBL3632507, “Discovery of novel VEGFR-2 inhibitors. Part 5: Exploration of diverse hinge-binding fragments via core-refining approach” (Eur J Med Chem, 2015).
